Test results from patent US11421264B2, “Thiol-containing cleave reagents and oxidative wash” (IsoPlexis Corporation, priority 2015, dated 2022).
Counter-ions that a name gives are not always drawn.

How the values were obtained:
[1] = Cleavage of nucleotide with dithio 3′ protective group and dithio based linker by cleavage agents (RP-HPLC, FIG. 78); details: RP-HPLC after 10 minutes of incubation with cleave reagent
Excerpt: In addition to these a variety of suitable cleaving agents can be used such as Bis(2-mercaptoethyl)sulfone (BMS) and N,N′-dimethyl-N,N′-bis(mercaptoacetyl)hydrazine (DMH) (Singh et al., Bioorg. Chem., 22, 109-115 (1994). Reactions can be further catalyzed by inclusion of selenols (Singh et al. Anal Biochem. 1995 Nov. 20; 232(1):86-91 [18]). Borohydrides, such as sodium borohydrides can also be used for this purpose (Stahl et al., Anal. Chem., 1957, 29 (1), pp 154-155 [19]) as well as ascorbic acid (Nardai et al., J. Biol. Chem. 276, 8825-8828 (2001)). In addition, enzymatic methods for cleavage of disulfide bonds ae also well known such as disulfide and thioreductase and can be used with compounds of the present invention (Holmgren et. al., Methods in Enzymology, Volume 252, 1995, Pages 199-208 [21]).

[2] = Cleavage of 3′-(MeSSCH2) capped nucleotide with attached disulfide linker by thiol based cleave reagents (LC-MS); details: for Compound C [%]: fully cleaved product; for Compound C [%] / Compound B [%] / Compound A [%]: Compound A 0.2 mM, cleave agent 20 mM, buffer 200 mM TE pH 8.5, 10 min @ 65 degree C.; for Compound B [%]: partly cleaved product; for Compound A [%]: starting nucleotide left, relative peak area at 280
Protocol: The structures of these cleave reagents are shown. See, FIG. 83. The cleavage products were then characterized by liquid chromatography/mass spectrometry ((LC/MS). See, FIG. 84. Compounds A, B and C are shown in FIG. 82A-82C.
This example presents a general method for cleavage studies as presented herein.
A stock solution of 100 mM cleave reagent (see Table-1) was prepared in 1.0 M TE buffer (pH 8.5, Sigma #T9285) in a 15.0 mL centrifuge tube. Then an aliquot of 20 μL (2,000 nmol) of it was diluted with 76.9 uL distilled water in a 1.0 mL centrifuge tube and added with 3.07 μL of 6.5 mM MeSSdUTP-ARA-NH2 (11, 20 nmol) to obtain—100 litL of total volume (Final concentration: 20 mM cleaving agent, 0.2 mM nucleotide, 200 mM TE buffer). The mixture tube was heated at 65 degree C. on a pre-heated thermocycler by shaking gently. The mixture was immediately analyzed by LC-MS after 10 minutes. The % conversion was determined by relative peak areas of the respective peaks extracted at 280 mu wavelength.

| Compound | identified composition of reaction mixture: cleavage of linker and 3′-protective group [1] | Compound C [%] [2] | Compound B [%] [2] | Compound A [%] [2] | cleavage of both the capping group and the linker ([2]; in less than ten (10) minutes at 65° C. in TRIS buffer (pH 8.5)) |
| --- | --- | --- | --- | --- | --- |
| Dithiosuccinic acid | selective cleavage of 3′-O-protective group | 50% | 50% | 0% |  |
| NCCS [Cysteamine] | full cleavage of both linker and the 3′-protective groups | 100% | 0% | 0% |  |
| OC(=S)CCC(O)=S [Dithiosuccinic acid] |  |  |  |  | complete cleavage was not observed |
| O=S(=O)(O)CC(S)CS (centres unmarked) [Dimercaptopropanesulfonate, 2,3-Dimercapto-1-propanesulfonic acid sodium salt] |  | 100% | 0% | 0% |  |
| N[C@@H](CS)C(=O)O [L-Cysteine] | full cleavage of both linker and the 3′-protective groups | 100% | 0% | 0% |  |
| O[C@H](CS)[C@H](O)CS (racemic) [DTT, dithiothreitol] | full cleavage of both linker and the 3′-protective groups | 100% | 0% | 0% |  |
